Data on eleven compounds can be found in ChEMBL document CHEMBL1137947, “Novel nevirapine-like inhibitors with improved activity against NNRTI-resistant HIV: 8-heteroarylthiomethyldipyridodiazepinone derivatives” (Bioorg Med Chem Lett, 2004).

The subject of series [1] is Human immunodeficiency virus 1. As to the kind of experiment: Effective concentration against wild-type HIV-1. Type of series: functional, organism-based.
Series [2] deals with Human immunodeficiency virus 1. As to the kind of experiment: Inhibitory activity against HIV-1 mutant strain K103N/Y181C. The format is functional, organism-based.
In series [3] the target is Human immunodeficiency virus type 1 reverse transcriptase (Human immunodeficiency virus 1, UniProt Q72547). Nature of the series: Inhibitory activity against wild type reverse transcriptase (WT RT) of HIV-1.
A short description of series [4]: Half-life for oxidative metabolic stability was determined using rat liver microsomes. Type of series: ADME, Microsome.
The target of another series is Cytochrome P450 2C19 (Homo sapiens, UniProt P33261). Nature of the series: Inhibition of cytochrome P450 2C19. The format is ADME.
Series [5] deals with T1, Cytochrome P450 2C9 (Homo sapiens, UniProt P11712). As to the kind of experiment: Inhibition of cytochrome P450 2C9. Type of series: ADME.
The target of series [6] is T2, Cytochrome P450 1A2 (Homo sapiens, UniProt P05177).
T2 sequence (P05177 whole entry): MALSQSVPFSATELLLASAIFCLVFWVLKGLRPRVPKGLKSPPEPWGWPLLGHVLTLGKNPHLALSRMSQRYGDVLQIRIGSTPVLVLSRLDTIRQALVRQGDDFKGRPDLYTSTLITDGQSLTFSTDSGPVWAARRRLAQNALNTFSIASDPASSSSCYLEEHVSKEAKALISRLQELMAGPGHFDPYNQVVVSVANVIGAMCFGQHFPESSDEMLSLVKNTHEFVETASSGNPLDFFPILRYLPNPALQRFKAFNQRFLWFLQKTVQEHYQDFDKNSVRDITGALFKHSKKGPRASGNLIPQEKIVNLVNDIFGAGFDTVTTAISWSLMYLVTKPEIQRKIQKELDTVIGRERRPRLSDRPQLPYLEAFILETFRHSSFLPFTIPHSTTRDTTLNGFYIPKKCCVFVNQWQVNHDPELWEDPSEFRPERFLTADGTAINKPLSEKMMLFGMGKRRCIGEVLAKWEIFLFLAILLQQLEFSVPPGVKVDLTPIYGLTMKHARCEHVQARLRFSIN
Nature of the series: Inhibition of cytochrome P450 1A2. Type of series: ADME.

Series [7] has as its target T3, Cytochrome P450 2D6 (Homo sapiens, UniProt P10635). As to the kind of experiment: Inhibition of CYP450 (Cytochrome P450) 2D6. Type of series: ADME.
Series [8] has as its target T4, Cytochrome P450 3A4 (Homo sapiens, UniProt P08684). Nature of the series: Inhibition of CYP450 (Cytochrome P450) 3A4 with fluorogenic substrate BFC. The format is ADME.
The target in series [9] is T4, Cytochrome P450 3A4. Nature of the series: Inhibition of CYP450 (Cytochrome P450) 3A4 with fluorogenic substrate BQ. Type of series: ADME.
For series [10], the system named is Human immunodeficiency virus 1. Nature of the series: Effective concentration against mutant K103N/Y181C of HIV-1. The format is functional, organism-based.
The species entered for a further series is Homo sapiens. As to the kind of experiment: Half-life for oxidative metabolic stability was determined using male human. The note with it: in vitro.
Series [11] in a line: Plasma clearance in rats. The note with it: rat. Type of series: ADME, organism-based.
Series [12] in a line: Volume of distribution at steady state was evaluated in rats. Type of series: ADME, organism-based. The note with it: rat, in vivo; read-out: Vss.
Series [13] in a line: Bioavailability in rats was evaluated. The format is ADME, organism-based. The conditions noted are these: rat, in vivo; read-out: Bioavailabiility.
A short description of series [14]: Maximum concentration was evaluated in rats. Type of series: ADME, organism-based. The note with it: rat, in vivo.
For series [15], the target named is T3, Cytochrome P450 2D6. As to the kind of experiment: Inhibition of cytochrome P450 2D6. The format is ADME.
Series [16] can be described thus: Half-life consistent with the observed metabolic steady state in rats. The format is ADME, organism-based. The conditions noted are these: rat, in vivo.
Series [17] deals with T2, Cytochrome P450 1A2. Nature of the series: Inhibition of CYP450 (Cytochrome P450) 1A2. The format is ADME.
Series [18] deals with T1, Cytochrome P450 2C9. Nature of the series: Inhibition of CYP450 (Cytochrome P450) 2C9. The format is ADME.

Molecules are shown by their SMILES.

T4 sequence (P08684 whole entry): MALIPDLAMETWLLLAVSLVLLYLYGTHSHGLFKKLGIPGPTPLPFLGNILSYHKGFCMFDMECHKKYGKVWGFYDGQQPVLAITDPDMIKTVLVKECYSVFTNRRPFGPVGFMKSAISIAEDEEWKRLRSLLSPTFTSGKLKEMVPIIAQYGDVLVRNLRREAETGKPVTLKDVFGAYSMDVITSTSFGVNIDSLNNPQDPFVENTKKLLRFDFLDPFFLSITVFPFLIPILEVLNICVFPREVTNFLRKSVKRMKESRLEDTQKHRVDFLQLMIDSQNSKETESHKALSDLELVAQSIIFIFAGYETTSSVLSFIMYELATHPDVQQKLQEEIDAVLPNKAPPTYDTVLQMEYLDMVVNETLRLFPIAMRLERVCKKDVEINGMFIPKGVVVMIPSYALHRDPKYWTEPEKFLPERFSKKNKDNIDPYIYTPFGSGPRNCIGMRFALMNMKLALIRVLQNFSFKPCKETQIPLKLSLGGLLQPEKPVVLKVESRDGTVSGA
Cytochrome P450 2C19, sequence (P33261 whole entry): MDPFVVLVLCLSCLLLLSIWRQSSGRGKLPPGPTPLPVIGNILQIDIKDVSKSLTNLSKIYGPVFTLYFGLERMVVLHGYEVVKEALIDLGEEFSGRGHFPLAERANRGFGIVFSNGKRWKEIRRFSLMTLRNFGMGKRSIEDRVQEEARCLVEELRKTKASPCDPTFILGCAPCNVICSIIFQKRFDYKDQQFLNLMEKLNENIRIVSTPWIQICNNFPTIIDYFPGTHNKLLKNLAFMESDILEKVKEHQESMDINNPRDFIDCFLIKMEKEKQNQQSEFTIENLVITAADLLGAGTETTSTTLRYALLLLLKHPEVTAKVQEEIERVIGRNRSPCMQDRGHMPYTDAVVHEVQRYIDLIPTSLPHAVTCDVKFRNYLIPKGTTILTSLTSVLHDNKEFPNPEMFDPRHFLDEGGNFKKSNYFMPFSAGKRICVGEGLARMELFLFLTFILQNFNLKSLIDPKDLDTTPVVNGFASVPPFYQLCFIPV
T1 sequence (P11712 whole entry): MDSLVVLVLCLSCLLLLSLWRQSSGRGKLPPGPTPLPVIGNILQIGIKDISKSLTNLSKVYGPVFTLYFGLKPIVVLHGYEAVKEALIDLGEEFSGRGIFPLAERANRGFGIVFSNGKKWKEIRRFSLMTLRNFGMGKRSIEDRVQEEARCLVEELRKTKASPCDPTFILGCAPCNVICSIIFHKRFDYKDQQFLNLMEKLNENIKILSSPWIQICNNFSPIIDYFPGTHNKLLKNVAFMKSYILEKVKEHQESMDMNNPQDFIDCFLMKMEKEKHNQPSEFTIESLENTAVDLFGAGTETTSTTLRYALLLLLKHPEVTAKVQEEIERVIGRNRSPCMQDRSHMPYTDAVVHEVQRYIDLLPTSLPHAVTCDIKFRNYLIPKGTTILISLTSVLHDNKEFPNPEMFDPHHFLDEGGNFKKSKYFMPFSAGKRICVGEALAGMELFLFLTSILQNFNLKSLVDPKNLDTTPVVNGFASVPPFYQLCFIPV
T3 sequence (P10635 whole entry): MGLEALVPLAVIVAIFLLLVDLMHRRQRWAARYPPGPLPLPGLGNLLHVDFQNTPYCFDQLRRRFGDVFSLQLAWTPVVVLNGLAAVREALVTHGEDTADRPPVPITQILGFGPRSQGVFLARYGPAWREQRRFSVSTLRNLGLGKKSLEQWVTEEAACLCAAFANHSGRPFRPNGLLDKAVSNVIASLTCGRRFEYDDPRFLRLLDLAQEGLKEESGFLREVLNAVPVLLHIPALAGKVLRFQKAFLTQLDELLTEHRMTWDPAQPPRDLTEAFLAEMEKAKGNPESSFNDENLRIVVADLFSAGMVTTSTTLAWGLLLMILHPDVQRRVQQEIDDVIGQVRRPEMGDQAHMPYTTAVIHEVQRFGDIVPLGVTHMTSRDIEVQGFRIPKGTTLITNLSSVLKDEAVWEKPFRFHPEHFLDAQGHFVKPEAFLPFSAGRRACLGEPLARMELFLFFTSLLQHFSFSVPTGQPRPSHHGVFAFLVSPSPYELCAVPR

The term EC50 denotes the midpoint of the concentration-response curve. Read a low EC50 as higher potency in that assay. For orientation: IC50 means the concentration at which inhibition is half-maximal. The low end stands for higher potency, the high end for lower potency. The compound `CCN1c2ncc(CSc3ccncc3)cc2C(=O)N(C)c2ccc(Cl)nc21` came in with an EC50 in [1] of 0.31 nM. The half-maximal inhibitory concentration (IC50) came out at 26 nM in series [2] and 3 nM in [3].

The compound `CCN1c2ncc(CSc3ccncc3)cc2C(=O)Nc2c(C)cc(Cl)nc21` registered an EC50 in series [1] of 0.48 nM. For the same compound, the concentration for half-maximal inhibition (IC50) in [2] turned out to be 80 nM; in series [3], 2.2 nM.

In series [1], `CCN1c2ncc(CSc3ccncc3C)cc2C(=O)Nc2c(C)cc(Cl)nc21` showed a concentration giving a half-maximal response (EC50) of 3.1 nM. For the same compound, the IC50 in [2] is 1640 nM; in [3], 11 nM.

One may read the half-life as how long it takes for the measured level to halve. A high value points to slow decline. On to `CCN1c2ncc(CSc3cc(C)nc(C)c3)cc2C(=O)Nc2c(C)cc(F)nc21`, for which the half-life (in series [4]; in the series listed under Homo sapiens) was 5 min in each case. Further, the 50% inhibitory concentration (IC50) against Cytochrome P450 2C19 was 5400 nM; against Cytochrome P450 2C9 [5], 4500 nM; against Cytochrome P450 1A2 [6], 26000 nM; against Cytochrome P450 2D6 [7], 27000 nM; against Cytochrome P450 3A4 [8], 2500 nM; against Cytochrome P450 3A4 [9], 10000 nM. Further, the IC50 was 120 nM in series [2] and 6.9 nM in series [3]. Also, the concentration giving a half-maximal response (EC50) in series [10] was 21 nM; in series [1], 1 nM.

Take `CCN1c2ncc(CSc3cncnc3)cc2C(=O)Nc2c(C)cc(Cl)nc21`: the EC50 in [1] came out at 7.8 nM. For the same compound, the IC50 in series [2] worked out at 5000 nM; in series [3] it was 26 nM.

`CCN1c2ncc(CSc3ccnc(C)c3)cc2C(=O)Nc2c(C)cc(Cl)nc21` registered a concentration for a half-maximal effect (EC50) in series [1] of 3.4 nM. The half-inhibitory concentration (IC50) in series [2] was determined as 310 nM; in series [3] it was 27 nM.

The clearance is a measure of how efficiently the substance is removed, as volume per time. A high value points to a high capacity for elimination. What is called Cmax is the peak of the concentration-time curve. Take `CCN1c2ncc(CSc3cc(C)nc(C)c3)cc2C(=O)Nc2c(C)cc(Cl)nc21`: the clearance in series [11] worked out at 57 mL/min/kg. The Vd in [12] was found to be 4.68 L/kg. For the same compound, the bioavailability in series [13] was determined as 76%. The Cmax in [14] amounted to 800 nM. Moreover, the results for the half-life (in series [4]; in [16]; in the series listed under Homo sapiens) were 4 min, 90 min and 7 min, respectively. The concentration for half-maximal inhibition (IC50) was determined as 4200 nM against Cytochrome P450 2C19; 2600 nM on Cytochrome P450 2C9 [5]; 23000 nM against Cytochrome P450 1A2 [6]; 2300 nM against Cytochrome P450 3A4 [8]; 8100 nM on Cytochrome P450 3A4 [9]; 27000 nM against Cytochrome P450 2D6 [15]. The IC50 in series [2] is 60 nM; in [3], 7 nM. Also, the EC50 was 14 nM in series [10] and 1.2 nM in series [1].

Take `Cc1cc(SCc2cnc3c(c2)C(=O)Nc2c(C)cc(Cl)nc2N3C2CC2)cc(C)n1`: the half-maximal effective concentration (EC50) stood at 104 nM in series [10] and 2.2 nM in series [1]. For the same compound, the half-maximal inhibitory concentration (IC50) in [2] was found to be 280 nM; in [3], 12 nM.

As for `CCN1c2ncc(CSc3nc(C)cc(C)n3)cc2C(=O)Nc2c(C)cc(Cl)nc21`, the EC50 in [1] worked out at 1.5 nM. Further, the IC50 in [2] stood at 320 nM; in [3], 6 nM.

`CCN1c2ncc(CSc3cc(C)nc(C)c3)cc2C(=O)Nc2c(C)ccnc21`: the half-life (in series [4]; in the series listed under Homo sapiens) was 9 min in each case. The 50% inhibitory concentration (IC50) at Cytochrome P450 2C19 is 26000 nM; at Cytochrome P450 1A2 [17], over 30000 nM; against Cytochrome P450 2C9 [18], 7400 nM; at Cytochrome P450 2D6 [7] it was over 30000 nM; against Cytochrome P450 3A4 [8], 1600 nM; against Cytochrome P450 3A4 [9] it was 10000 nM. For the same compound, the IC50 in [2] turned out to be 170 nM; in [3], 4.2 nM. Also, the concentration for a half-maximal effect (EC50) in series [10] was 12 nM; in series [1] it was 0.46 nM.

In turn, `CCN1c2ncc(CSc3nc4ccccc4o3)cc2C(=O)Nc2c(C)cc(Cl)nc21` came in with a 50% effective concentration (EC50) in series [1] of 2.7 nM. Also, the figures for the half-maximal inhibitory concentration (IC50) in series [2] and in series [3] were 230 nM and 8 nM, respectively.
